According to US20170050966A1, “INHIBITING THE TRANSIENT RECEPTOR POTENTIAL A1 ION CHANNEL” (HYDRA BIOSCIENCES, INC., priority 2014, published 2017):
≈ marks a conversion by molar mass, not a printed value.

Assays:
[1] = Oral PK and bioavailability of micronized Compound 2 suspension; format: in vivo; conditions: fasted cynomolgus monkeys
Description: Additional studies were conducted with micronized Compound 2 in rat, dogs (beagles), and cynomolgus monkeys. Animals received a 10 mg/kg dose oral dose of compound formulated as a suspension in 0.5% methyl cellulose in water for injection at a target concentration of 1 mg/mL, and administered a dose volume of 10 mL/kg by oral gavage in rats or fasted dogs and via oral delivery in fasted cynomolgus monkeys. The % F for the rats in these studies was 85%, 36% for the dogs, and 19% for the monkeys. FIG. 11 depicts the pharmacokinetic profile for these species.
Three studies were conducted in fasted cynomolgus monkeys to determine the PK profile and bioavailability of a suspension formulation of Compound 2. Three monkeys were administered a suspension containing 10 mg/kg micronized Compound 2 by oral gavage. Monkeys were bled before dosing and at 0.25, 0.50, 1, 2, 4, 6, 12, and 24 hours post-dosing. Compound 2 plasma levels were determined by LC/MS/MS. Additional studies were conducted to evaluate the PK profile at higher dose levels of Compound 2 administered to fasted monkeys as an oral suspension. Blood samples were collected prior to dosing and up to 24 hours post-dosing. An additional 48 hour blood sample was collected from monkeys dosed with 300 mg/kg Compound 2. Plasma levels of Compound 2 were determined by LC/MS/MS.

[2] = Solubility of micronized Compound 2 in McIlvain's citrate-phosphate buffer; format: physicochemical; conditions: aqueous buffer, thermodynamic from solid, citrate-phosphate buffer pH 2.2 to 8.64, 30 hours, read-out: Solubility of micronized formulation
Description: Solubility of a micronized formulation of Compound 2 was further evaluated using McIlvain's citrate-phosphate buffer recipes (0.2M Na2HPO4 and 0.1M citric acid) from pH 2.2 to 8.64. Samples were agitated for 30 hours and sampled, centrifuged, and analyzed by UPLC.

[3] = CYP450 reaction phenotyping in human liver microsomes; format: in vitro ADME; conditions: human liver microsomes with and without selective CYP450 inhibitors
Description: CYP450 reaction phenotyping of Compound 2 was conducted by incubating the test article with human liver microsomes in the presence and absence of selective CYP450 inhibitors.

cynomolgus monkeys = assay: Hepatotoxicity safety profile, serum biomarkers; format: in vivo; conditions: for ALP d28 / ALT d28 / AST d28 / GGT d28: day 28
Description: Compound 2 in the vehicle (0.5% methylcellulose, 400 cps) was administered via nasogastric intubation once daily for 28 or 29 consecutive days to 4 groups of cynomolgus monkeys. Each group received one dose level. Dosage levels were 10, 30, 100, and 300 mg/kg/day per group. […] The dosage volume was 10 ml/kg for all groups. Hepatoxicity was measured via the serum biomarkers of alanine aminotransferease [ALT], aspartate aminotransferase [AST], alkaline phosphastase [ALP] and gamma-glutamyl transferase [GGT] which represent hepatotoxicity or bile duct injury.

[4] = Storage stability of anhydrous solid crystalline form (XRPD); format: physicochemical; conditions: Form B, ambient conditions for three months
Text: After storage of this solid crystalline form at ambient conditions for three months, the sample was subjected to XRPD analysis again.

sheepTRPA1 = sheepTRPA1 (Ovis aries, UniProt A0ACI6QTQ3); assay: TRPA1 IC50, whole-cell patch clamp; format: cell-based, Sheep; conditions: sheepTRPA1, 20 μM AITC; read-out: IC50 Inward current
Sequence of sheepTRPA1 (A0ACI6QTQ3 entry or part of it): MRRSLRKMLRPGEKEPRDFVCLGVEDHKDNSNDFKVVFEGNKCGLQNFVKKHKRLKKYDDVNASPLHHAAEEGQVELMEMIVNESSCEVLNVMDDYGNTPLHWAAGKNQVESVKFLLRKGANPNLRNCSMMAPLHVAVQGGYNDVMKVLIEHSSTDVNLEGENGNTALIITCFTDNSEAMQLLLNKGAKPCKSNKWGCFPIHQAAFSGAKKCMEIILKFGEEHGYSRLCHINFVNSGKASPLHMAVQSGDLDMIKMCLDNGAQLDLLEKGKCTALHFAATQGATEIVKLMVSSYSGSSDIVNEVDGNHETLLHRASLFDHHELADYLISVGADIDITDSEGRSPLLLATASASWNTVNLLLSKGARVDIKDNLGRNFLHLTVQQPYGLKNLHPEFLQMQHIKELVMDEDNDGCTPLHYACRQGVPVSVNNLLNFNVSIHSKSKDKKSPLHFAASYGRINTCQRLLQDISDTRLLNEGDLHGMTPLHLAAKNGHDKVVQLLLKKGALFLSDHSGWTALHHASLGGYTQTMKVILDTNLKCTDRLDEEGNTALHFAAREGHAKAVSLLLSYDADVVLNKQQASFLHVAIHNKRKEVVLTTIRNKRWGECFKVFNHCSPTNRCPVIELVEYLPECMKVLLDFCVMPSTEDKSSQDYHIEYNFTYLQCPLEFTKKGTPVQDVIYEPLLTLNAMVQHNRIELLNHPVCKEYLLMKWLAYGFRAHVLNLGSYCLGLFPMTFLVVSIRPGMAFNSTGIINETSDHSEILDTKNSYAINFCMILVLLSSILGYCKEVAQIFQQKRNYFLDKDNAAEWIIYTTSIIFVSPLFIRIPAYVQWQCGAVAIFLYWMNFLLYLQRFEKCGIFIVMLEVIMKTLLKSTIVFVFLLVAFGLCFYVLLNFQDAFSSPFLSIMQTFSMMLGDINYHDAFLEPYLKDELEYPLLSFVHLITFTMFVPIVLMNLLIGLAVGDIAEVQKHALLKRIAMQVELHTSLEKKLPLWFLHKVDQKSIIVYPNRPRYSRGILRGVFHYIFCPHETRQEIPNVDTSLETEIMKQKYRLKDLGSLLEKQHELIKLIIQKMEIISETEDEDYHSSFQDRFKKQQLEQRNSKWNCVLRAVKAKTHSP

CYP2C8 = CYP2C8 (Homo sapiens, UniProt P10632); assay: in vitro; conditions: probe Amodiaquine
Sequence of CYP2C8 (P10632 whole entry): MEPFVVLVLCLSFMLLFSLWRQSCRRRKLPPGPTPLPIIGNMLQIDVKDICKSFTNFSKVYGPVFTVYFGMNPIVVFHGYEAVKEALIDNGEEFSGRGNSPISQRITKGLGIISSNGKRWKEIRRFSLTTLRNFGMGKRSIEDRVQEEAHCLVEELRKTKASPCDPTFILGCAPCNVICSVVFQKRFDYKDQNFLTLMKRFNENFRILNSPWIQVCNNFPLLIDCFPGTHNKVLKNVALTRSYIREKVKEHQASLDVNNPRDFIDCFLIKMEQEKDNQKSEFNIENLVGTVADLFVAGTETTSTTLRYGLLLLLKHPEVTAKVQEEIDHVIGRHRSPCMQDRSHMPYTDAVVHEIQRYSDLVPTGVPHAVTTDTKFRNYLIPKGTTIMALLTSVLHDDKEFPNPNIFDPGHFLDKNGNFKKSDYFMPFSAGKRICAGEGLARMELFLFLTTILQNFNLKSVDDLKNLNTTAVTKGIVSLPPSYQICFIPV

CYP2B6 = CYP2B6 (Homo sapiens, UniProt P20813); assay: in vitro; conditions: probe Buproprion
Sequence of CYP2B6 (P20813 whole entry): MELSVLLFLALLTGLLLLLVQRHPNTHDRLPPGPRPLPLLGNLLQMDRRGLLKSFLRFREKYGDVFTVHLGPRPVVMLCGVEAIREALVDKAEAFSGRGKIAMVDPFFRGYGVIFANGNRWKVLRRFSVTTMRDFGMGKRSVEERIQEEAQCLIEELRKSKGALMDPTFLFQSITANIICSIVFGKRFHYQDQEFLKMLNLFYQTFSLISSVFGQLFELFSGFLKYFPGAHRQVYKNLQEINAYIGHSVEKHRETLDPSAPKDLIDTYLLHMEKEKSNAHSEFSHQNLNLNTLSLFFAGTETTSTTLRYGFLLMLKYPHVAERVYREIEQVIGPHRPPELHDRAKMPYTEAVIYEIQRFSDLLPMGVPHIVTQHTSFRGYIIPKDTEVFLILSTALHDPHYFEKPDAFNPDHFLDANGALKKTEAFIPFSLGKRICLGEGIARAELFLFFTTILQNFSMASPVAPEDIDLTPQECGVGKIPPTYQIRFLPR

CYP3A4 = CYP3A4 (Homo sapiens, UniProt P08684); assay: CYP450 inhibition at 10 μM; format: biochemical
Sequence of CYP3A4 (P08684 whole entry): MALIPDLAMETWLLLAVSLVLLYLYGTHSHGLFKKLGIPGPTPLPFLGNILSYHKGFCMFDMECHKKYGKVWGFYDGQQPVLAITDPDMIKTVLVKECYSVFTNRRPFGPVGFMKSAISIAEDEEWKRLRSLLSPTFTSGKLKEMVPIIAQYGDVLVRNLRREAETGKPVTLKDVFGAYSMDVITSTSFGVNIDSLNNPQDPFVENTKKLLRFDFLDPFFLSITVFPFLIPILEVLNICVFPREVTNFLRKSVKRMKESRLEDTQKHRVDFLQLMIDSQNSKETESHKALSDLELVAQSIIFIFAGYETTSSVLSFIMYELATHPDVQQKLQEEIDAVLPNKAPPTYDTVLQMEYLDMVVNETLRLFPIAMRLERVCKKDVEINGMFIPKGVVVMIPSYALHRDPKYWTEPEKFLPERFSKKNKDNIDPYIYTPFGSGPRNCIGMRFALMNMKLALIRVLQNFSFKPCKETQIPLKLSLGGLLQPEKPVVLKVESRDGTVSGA

[5] = Plasma protein binding, equilibrium dialysis; conditions: pooled K2EDTA plasma
Description: With this method, free compound is separated from protein-bound compound by dialysis across a semi-permeable membrane.
The protein binding was tested at a concentration of 1 μM. Pooled human, cynomolgus monkey, dog, and rat K2EDTA plasma was thawed and centrifuged at 2000×g for 10 minutes at 4° C. to remove particulates; any lipid on the top of the supernatant was also removed by aspiration. The plasma was warmed to 37° C. for 10 minutes before use. Test compounds were spiked into 2 ml plasma in a polypropylene plate to a final concentration of 1 μM. Triplicate 400 μl aliquots of spiked plasma were transferred into the Thermo RED dialysis units and dialyzed against 600 μl of PBS buffer. […] After 6 hours dialysis, triplicate 50 μl aliquots were removed from the RED plate, matrix-matched with either PBS buffer or blank plasma, as appropriate, and quenched with 4 volumes of ACN containing an internal standard. The extracted samples were then centrifuged at 2000×g for 5 minutes at 4° C. The supernatant (50 μl) was removed and diluted with 100 μl water prior to LC/MS/MS bioanalysis.

mTRPA1 = biological target: T1, mTRPA1 (Mus musculus, UniProt Q8BLA8); assay: TRPA1 IC50, whole-cell patch clamp; format: cell-based; conditions: mTRPA1, 10 μM AITC; read-out: IC50 Inward current
T1 construct: expressed in transfected cells
T1 sequence (Q8BLA8 whole entry): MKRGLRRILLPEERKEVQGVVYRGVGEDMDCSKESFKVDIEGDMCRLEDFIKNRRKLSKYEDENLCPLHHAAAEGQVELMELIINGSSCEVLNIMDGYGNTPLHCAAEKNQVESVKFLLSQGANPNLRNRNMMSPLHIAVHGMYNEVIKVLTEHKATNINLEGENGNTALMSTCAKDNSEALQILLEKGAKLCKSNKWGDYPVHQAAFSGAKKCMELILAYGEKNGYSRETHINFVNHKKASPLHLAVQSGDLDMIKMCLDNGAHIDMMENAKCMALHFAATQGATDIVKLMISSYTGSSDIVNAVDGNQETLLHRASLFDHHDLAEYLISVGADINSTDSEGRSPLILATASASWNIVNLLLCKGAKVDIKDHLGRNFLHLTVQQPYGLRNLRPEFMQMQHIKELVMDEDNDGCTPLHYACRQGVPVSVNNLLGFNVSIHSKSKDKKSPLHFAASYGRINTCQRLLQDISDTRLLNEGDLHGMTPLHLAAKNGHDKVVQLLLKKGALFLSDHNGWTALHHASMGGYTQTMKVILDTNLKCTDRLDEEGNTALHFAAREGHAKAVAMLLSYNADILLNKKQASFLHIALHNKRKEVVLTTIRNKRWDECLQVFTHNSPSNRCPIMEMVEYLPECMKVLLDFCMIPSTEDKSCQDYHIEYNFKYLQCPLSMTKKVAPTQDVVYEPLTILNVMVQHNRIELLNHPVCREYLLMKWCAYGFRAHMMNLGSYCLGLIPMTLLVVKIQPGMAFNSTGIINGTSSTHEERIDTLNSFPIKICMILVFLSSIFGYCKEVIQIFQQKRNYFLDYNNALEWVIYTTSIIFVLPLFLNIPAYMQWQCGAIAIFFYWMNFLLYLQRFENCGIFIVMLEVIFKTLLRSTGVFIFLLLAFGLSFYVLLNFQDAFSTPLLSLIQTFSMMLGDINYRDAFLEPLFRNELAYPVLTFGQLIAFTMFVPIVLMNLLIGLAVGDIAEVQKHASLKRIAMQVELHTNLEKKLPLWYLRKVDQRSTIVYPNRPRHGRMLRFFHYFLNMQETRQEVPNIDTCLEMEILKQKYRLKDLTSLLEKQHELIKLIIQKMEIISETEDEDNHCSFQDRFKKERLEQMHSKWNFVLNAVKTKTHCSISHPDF

C[C@@H](C(=O)Nc1ccnc(-c2cnc(N3CCC[C@H]3C(F)(F)F)nc2)n1)n1cnc2c1c(=O)n(C)c(=O)n2C [Compound 2, (S)-2-(1,3-dimethyl-2,6-dioxo-2,3-dihydro-1H-purin-7(6H)-yl)-N-(2′-((S)-2-(trifluoromethyl)pyrrolidin-1-yl)-[2,5′-bipyrimidin]-4-yl)propanamide]
bioavailability ([1]; cynomolgus monkey, plasma, 10 mg/kg oral, micronized suspension): 19% | Exposures on an AUC and Cmax basis versus dose ([1]; oral suspension): increased with doses up to 1000 mg/kg | solubility at 30 h [2]: 200 to 1300 µg/mL (≈ 367 to 2390 µM) | CYP450 isozymes involved in in vitro metabolism [3]: involved mainly the CYP3A4 isozymes | ALP d28 (cynomolgus monkeys; 10 mg/kg/day nasogastric): 744.0 U/L | ALT d28 (cynomolgus monkeys; 10 mg/kg/day nasogastric): 87.0 U/L | AST d28 (cynomolgus monkeys; 10 mg/kg/day nasogastric): 126.0 U/L | GGT d28 (cynomolgus monkeys; 10 mg/kg/day nasogastric): 64.0 U/L | ALP d28 (cynomolgus monkeys; 30 mg/kg/day nasogastric): 461.0 U/L | ALT d28 (cynomolgus monkeys; 30 mg/kg/day nasogastric): 50.0 U/L | AST d28 (cynomolgus monkeys; 30 mg/kg/day nasogastric): 72.0 U/L | GGT d28 (cynomolgus monkeys; 30 mg/kg/day nasogastric): 49.0 U/L | ALP d28 (cynomolgus monkeys; 100 mg/kg/day nasogastric): 532.0 U/L | ALT d28 (cynomolgus monkeys; 100 mg/kg/day nasogastric): 61.0 U/L | AST d28 (cynomolgus monkeys; 100 mg/kg/day nasogastric): 70.0 U/L | GGT d28 (cynomolgus monkeys; 100 mg/kg/day nasogastric): 53.7 U/L | ALP d28 (cynomolgus monkeys; 300 mg/kg/day nasogastric): 441.0 U/L | ALT d28 (cynomolgus monkeys; 300 mg/kg/day nasogastric): 67.0 U/L | AST d28 (cynomolgus monkeys; 300 mg/kg/day nasogastric): 134.0 U/L | GGT d28 (cynomolgus monkeys; 300 mg/kg/day nasogastric): 54.8 U/L | serum biomarkers of hepatotoxicity (ALT, AST, ALP, GGT) (cynomolgus monkeys; cynomolgus monkeys, once daily for 28 or 29 days): did not elevate the serum biomarkers up to and including a dose of 300 mg/kg | XRPD pattern after storage [4]: matches the original indexed pattern | IC50 (sheepTRPA1): 3.28 ± 0.64 µM | inhibition at 10 µM (CYP2C8): 3.2% | inhibition at 10 µM (CYP2B6): 15.1% | inhibition at 10 µM (CYP3A4; probe Midazolam, 3A4, substrate Midazolam): 0% | inhibition at 10 µM (CYP3A4; probe Testosterone, 3A4, substrate Testosterone): 2.8% | fraction unbound at 6 h, 1 μM ([5]; beagle, dog): 0.055 | fraction unbound at 6 h, 1 μM ([5]; cynomolgus monkey): 0.02 | IC50 (mTRPA1): 0.0266 ± 0.0033 µM
